For 2 compounds, tumor growth results are on record in patent publication US20180044738A1, “METHOD OF DIAGNOSING BREAST CANCER, MONITORING TREATMENT OF BREAST CANCER, AND TREATING BREAST CANCER” (University Of Cincinnati, priority 2016, published 2018).

Where two headings read alike, the source gives them in different places.

This assay has as its system Xenograft tumors.

Source text: Xenograft tumors derived from luciferase-expressing MDA-MB-231 and SUM159 cells will be implanted orthotopically in female nude mice. […] Initial dose of the aptamers will follow the previous animal studies (weekly intra-tumoral injection; 2000 pmol each time delivered in 10 sub-injections). The optimal dose will be determined empirically based on the effect on tumor volumes. The lapatinib plus imatinib group will be used to compare the tumor suppression efficacy of drug treatment with the aptamers. […] Tumor volume will be measured weekly with a caliper, and also by an IVIS imaging system (Xenogen) which can reveal potential metastatic sites. Apoptosis will be assessed by TUNEL assay of the tumor tissues; proliferation will be assayed by in vivo BrdU incorporation analysis. Primary tumor with adjacent normal tissues will be examined by hematoxylin/eosin (H&E) staining. Tumor invasion will be assessed based on the extent of infiltration into surrounding tissues, the margins from surrounding tissues, and desomoplastic stromal reaction by smooth muscle actin staining. Human origin of the invasive cells will be confirmed by staining for human cytokeratin.

For the compound `Cc1ccc(NC(=O)c2ccc(CN3CCN(C)CC3)cc2)cc1Nc1nccc(-c2cccnc2)n1` [imatinib], for the setting “mouse, in vivo, po, 100 mg/kg”, the tumor growth entry is given as “not either drug alone”.
Turning to `CS(=O)(=O)CCNCc1ccc(-c2ccc3ncnc(Nc4ccc(OCc5cccc(F)c5)c(Cl)c4)c3c2)o1` [lapatinib], the tumor growth entry (oral gavage, 100 mg/kg of each drug, in a month, preliminary results, data not shown) was “not either drug alone”.
